Measured values taken from US6482851B1, “Synthesis of dysidiolide and uses thereof” (Sloan-Kettering Institute for Cancer Research, priority 1998, dated 2002).
“Also recorded” adds a separate entry of the source.

Tests used:
[1] = tested on: lung carcinoma and murine leukemia cell lines; conditions: cited from earlier work
Cdk4 [2] = assay: in vitro kinase assay of Cdk4 immunoprecipitated from treated TSU-Pr1 cells; format: cell-based, human; conditions: 3.33 μM, TSU-Pr1, as early as 3 hours in drug
Method: (§1) TSU-Pr1 cells were treated for 24 hours with either DMSO or 3.33 μM dysidiolide. Cells were pulse-labeled for 30 min with bromodeoxyuridine (BrdU) and analyzed by FACS. The R@ window contains BRDU-positive, S-phase cells. Consistent with the proposed inhibitory effect of dysidiolide on the positive cell cycle regulator Cdc25. the drug inhibited the activity of cyclin-dependent kinases (Cdk). Cdk4, 6 and 2 were immunoprecipitated from DMSO- or drug-treated TSU-Pr1 cell cultures. Activity was examined in vitro kinase assays. The activity of the three Cdks was inhibited in drug-treated cells, as early as 3 hours in drug.
(§2) In vitro kinase assays of Cdk. TSU-Pr1 cells were treated with 3.33 μM dysidiolide for 0-24 hours. Samples were collected at various times and the activity of Cdk4, 6 and 2 was determined. Cdks were immunoprecipitated with specific antibodies and incubated with radiolabeled ATP plus either histH1 (for Cdk2) or GST-Rb (for Cdk4 and 6). Reactions were separated on SDS-polyacrylamide gels and the amount of phosphorylated product was determined by radiometric analysis.

[3] = tested on: MCF7 human breast cancer cells; assay: BrdU pulse-chase S phase progression; format: cell-based
Method: Effect of 10 μM dysidiolide on cell cycle progression of S-phase MCF7 cells (BrdU-positive). MCF7 cultures were pulse-labeled with 10 μM BrdU for 30 min. Cultures were washed extensively with phosphate-buffered saline (PBS) solution and fresh media was added, supplemented or not with 10 μM dysidiolide. The final DMSO concentration of control and drug cultures was 0.05%. Cells were harvested at different times after the BrdU pulse and cells were stained for DNA content with propidium iodide, and for BrdU, with a monoclonal anti-BrdU antibody coupled to fluorescein. The progression of this group of cells through the cell cycle was followed by dual wavelength flow cytometry.
Effect of 50 μM dysidiolide on cell cycle progression of S-phase MCF7 cells. MCF7 cells were pulse-labeled for 30 min with BrdU, and chased for 24 hr in the presence or absence of 50 μM dysidiolide. BrdU versus DNA content plots are shown for cell cultures harvested just after the pulse (time 0, “0”), and after the chase with (“24+”) or without drug (“24−”)
To further analyze the cell cycle effects induced by dysidiolide, the effects of the drug on S phase progression were tested. For this purpose, a subset of cells was pulse-labeled with the thymidine analog, 5-bromodeoxyuridine (BrdU) for 30 min, and chased in the presence or absence of dysidiolide. The progression of this group of cells through the cell cycle was followed by flow cytometry, by analyzing the intensity of BrdU labeling and DNA content at two different wavelengths: red for propidium iodide stain (DNA content) and green for the detection of anti-BrdU antibodies coupled to fluorescein (Becton-Dickinson Immunocytometric Systems, San Jose, Calif.). The first experiment was conducted on MCF7 human breast cancer cells chased for varying time periods after a 30 min BrdU pulse, with or without 10 μM dysidiolide. After a 24 hr chase in the presence of the drug, fewer cells had reached G1 (FIG. 6). However, the effect was modest in intensity (approximately 45% less cells reached G1 in treated samples, compared with untreated controls) […]

Cdk4 [4] = assay: Cdk4 kinase activity on immunoprecipitates from treated MCF7 cells; format: cell-based, human; conditions: 50 μM, 24 hr
Method: Effect of a 24 hr treatment with 50 μM dysidiolide on the kinase activity of Cdk4, Cdk2 and Cdc2. Cdk were immunoprecipitated from MCF7 cell lysates obtained from cultures treated or not with dysidiolide for 24 hr. Histone H1 was used as substrate for Cdk2 and Cdc2, whereas GST-Rb was the substrate for Cdk4.
To further characterize the effects of dysidiolide on cell cycle control, experiments were conducted at the molecular level. As Cdc25s (A, B and C) are positive regulators of cyclin-dependent kinases (Cdk) (reviewed in Draetta and Eckstein, BBA 1332: M53-M63, 1997) inhibition of Cdc25 is expected to result in inhibition of Cdk activity. MCF7 cells were treated with 2 or 10 μM dysidiolide or with DMSO (controls) for 2 or 4 hr. Cell extracts were used to measure the steady-state levels of Cdc25 A and C, and Cdk activity. […] However, a decrease in the levels of Cdc25 C (but not on A) was clearly noticeable (FIG. 9B). In the next experiment MCF7 cells were treated for 24 hr with 50 μM dysidiolide or with DMSO (control) for 24 hr. […] On the other hand, at these more stringent conditions, inhibition of Cdk2, Cdk4 and Cdc2 protein kinase activities was observed (FIG. 10A and FIG. 10B).

[5] = tested on: TSU-Pr1, PC3 and DU145 human prostrate cancer cells; assay: apoptosis by FACS detection of fragmented DNA; format: cell-based; conditions: 24 hours
Method: Cells containing fragmented DNA content were detected as the M1 (subG1) region on DNA content plots.
Effects of dysidiolide at the cellular level. Dysidiolide was cytotoxic to several human tumor cell lines. […] (A) Human tumor cells were treated for 24 hours in the presence of various concentrations of dysidiolide or DMSO vehicle. Cells were analyzed by FACS and the percentage of cells bearing less than the 2 n DNA complement was determined. (B) Immunofluorescence micrographs of TSU-Pr1 human prostrate cancer cells untreated or treated for 6 hours with 2-50 μM dysidiolide.

Cdk2 = assay: in vitro kinase assay of Cdk2 immunoprecipitated from treated TSU-Pr1 cells; format: cell-based, human; conditions: 3.33 μM, TSU-Pr1, as early as 3 hours in drug
Method: as §1, §2

Cdk6 = assay: in vitro kinase assay of Cdk6 immunoprecipitated from treated TSU-Pr1 cells; format: cell-based, human; conditions: 3.33 μM, TSU-Pr1, as early as 3 hours in drug
Method: as §1, §2

In the case of `C=C(C)CCC[C@@]1(C)CCC[C@H]2C1=CC[C@H](C)[C@]2(C)C[C@H](O)C1=CC(=O)O[C@@H]1O` (racemic) [dysidiolide], the “growth of lung carcinoma and murine leukemia cell lines” value [1] is given as “inhibits growth”, the Cdk4 activity (Cdk4 [2]) is given as “inhibited” and the “less cells reached G1 compared with untreated controls” value ([3]; 10 μM, 24 hr chase after 30 min BrdU pulse) is given as “approximately 45%”. For the same compound, the “cell cycle progression of BrdU-positive cells onto the next G1 phase” value ([3]; 50 μM, 24 hr chase) was “prevented cell cycle progression”, the “cells with intermediate DNA content (S phase), forced fit” value ([3]; 50 μM, 24 hr chase, BrdU-positive cells) was “approximately 90%” and the “Cdk4 protein kinase activity” value (Cdk4 [4]) was “inhibition”. The apoptosis [5] was “massive apoptosis; also recorded: induced apoptotic cell death”, the Cdk2 activity (Cdk2) was “inhibited” and the Cdk6 activity (Cdk6) was “inhibited”.
